Test results reported in PubChem BioAssay (NCI).
Several values for one entry are separate records, joined by “and”; a condition that tells them apart may be missing. Identical values can stand only once.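 Five compound concentrations were applied to cells in 96-well plates for 48 hours; endpoints were derived by simple linear interpolation of the resulting dose-response curve. The concentration for 50% growth inhibition is given as GI50. TGI marks complete inhibition of growth.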

What was measured:
Assay in all cases: DTP human tumour cell line panel, 48 h
[1] = test system: M14 melanoma
[2] = test system: A549 NSCLC
[3] = test system: HCT-15 colon
[4] = test system: SNB-75 CNS
[5] = test system: UACC-62 melanoma
[6] = test system: SNB-19 CNS
[7] = test system: UO-31 renal
[8] = test system: RPMI-8226 leukemia
[9] = test system: HOP-62 NSCLC
[10] = test system: HL-60(TB) leukemia

Compound | TGI [1] | TGI [2] | TGI [3] | TGI [4] | TGI [5] | TGI [6] | TGI [7] | TGI [8] | TGI [9] | GI50 [1] | GI50 [3] | GI50 [5] | GI50 [6] | GI50 [7] | GI50 [10] | TGI [10] | GI50 [2] | GI50 [4] | GI50 [8] | GI50 [9]
CCOC(=O)C(=O)Nc1ccccc1C(F)(F)F | > 100 µM | > 100 µM | > 100 µM | > 100 µM | > 100 µM | > 100 µM | > 100 µM | > 100 µM | > 100 µM | – | – | – | – | – | – | – | – | – | – | –
C[C@H]1[C@H](C)CC[C@]2(C(=O)NCCNCCN)CC[C@]3(C)C(=CC[C@@H]4[C@@]5(C)CCC(=O)C(C)(C)[C@@H]5CC[C@]43C)[C@H]12 | 3.41 µM | – | 3.29 µM | – | 2.96 µM | 3.11 µM | 2.86 µM | – | – | 1.79 µM | 1.73 µM | 1.6 µM | 1.67 µM | 1.53 µM | – | – | – | – | – | –
COc1ccccc1-c1cc(=O)c2ccc(C)nc2[nH]1 | > 100 µM | > 100 µM | > 100 µM | – | > 100 µM | > 100 µM | > 100 µM | > 100 µM | > 100 µM | – | – | – | – | – | 73.8 µM | > 100 µM | – | – | – | –
CC1(C)OC2COC3(CNO)OC(C)(C)OC3C2O1 (stereo not given) | > 100 µM | > 100 µM | > 100 µM | > 100 µM | > 100 µM | > 100 µM | > 100 µM | – | > 100 µM | – | – | – | – | – | – | 30.2 µM | – | – | – | –
C[n+]1c2ccccc2cc2c(CNC(CCCN=C(N)N)C(=O)O)cccc21 (stereo not given) | 15.1 µM | 14.6 µM | 1.44 µM and 2.52 µM | 10.8 µM | 2.32 µM | – | 2.43 µM and 22 µM | 0.679 µM and 1.56 µM | 6.88 µM and 22 µM | 2.86 µM | 0.551 µM | – | – | 10.2 µM | 0.187 µM | 0.488 µM and 0.882 µM | 4.11 µM | 1.82 µM | 0.327 µM | 9.22 µM
C=C(CN1CCc2ccccc2C1)c1ccc(C(=O)Nc2ccccc2N)cc1 | 18.4 µM | > 50 µM | 5.11 µM | – | 3.3 µM | > 50 µM | 8.8 µM | > 12.9 µM | 17 µM | 1.73 µM | 0.94 µM | 0.821 µM | 2.39 µM | 2.87 µM | 3.18 µM | > 12.3 µM | 2.05 µM | – | 0.793 µM | 1 µM
c1ccc(Cn2cnc3ccc(-c4nc(-c5ccc6c(c5)ncn6C5CCCCC5)cn5ccnc45)cc32)cc1 | – | 4.97 µM | – | – | – | > 100 µM | 4.55 µM | 4.5 µM | – | – | – | – | 4.54 µM | 1.72 µM | 2.88 µM | 6.65 µM | 2.33 µM | – | 1.15 µM | –
CC1=C(C(=O)Nc2ccccc2C)C(/C=C/c2ccccc2)C(C(=O)Nc2ccccc2C)=C(C)N1 | > 100 µM | > 100 µM | > 100 µM | > 100 µM | > 100 µM | > 100 µM | > 100 µM | – | > 100 µM | – | – | – | – | – | – | > 100 µM | – | – | – | –
O=C/C(=C(/Cl)c1ccc(O)cc1)c1ccccc1 | > 57.1 µM | > 84.6 µM | 46 µM | > 67.2 µM | 22 µM | > 100 µM | 61.8 µM | > 63 µM | – | – | – | – | – | – | – | > 100 µM | – | – | – | –
NC(N)=NS(=O)(=O)c1ccc(NC(=O)c2cccc3c(Nc4ccc(S(N)(=O)=O)cc4)c4ccccc4nc23)cc1 | > 100 µM | > 100 µM | > 100 µM | > 100 µM | > 100 µM | > 100 µM | > 100 µM | > 100 µM | > 100 µM | – | – | – | – | – | – | – | – | – | – | –
